# Laboratory results reported in US8598227B2, “Epoprostenol formulation and method of making thereof” (Actelion Pharmaceuticals Ltd., priority 2006, dated 2013).
# Assays:
# [1] = cited from earlier work
# [2] = Solution stability of Epoprostenol in presence of 50 mg/ml of arginine; format: physicochemical; conditions: 50 mg/ml arginine
# Procedure: A solution of epoprostenol and 50 mg/ml of arginine was prepared and the stability of this solution at 5° C. was determined. The resulting data are presented in the Table 4: Stability of the same formulation was also conducted at pH 11.2; and the data are summarized in the Table 5 below: […]
# [3] = Dilution stability of reconstituted lyophile diluted to 10 μg/ml in IV fluids; format: physicochemical
# Procedure: Dilution studies were also conducted to determine whether the formulations of the present invention are suitable for IV infusion at room temperature. The stability studies were conducted at 25° C. and 30° C. to mimic the temperatures during the infusion over a 24 hour period in various large volume parenteral solutions.
# To this end, the stability of the epoprostenol lyophile reconstituted and diluted to 10 μg/ml in normal saline was stability monitored for 48 hours at 25° C. and 30° C. Dilution stability of all three primary formulation batches was conducted in normal saline at 25° C. and 30° C. In addition to these studies, dilution stability studies on one lot of primary formulation batch were conducted at 25° C. and 30° C. in 5% Dextrose (D5W), WFI (in-house) and lactated Ringer's solution.
# For the dilution studies, each vial was reconstituted with 5 ml of the diluent. The clear solution was transferred into a 50 ml volumetric flask. The vial was rinsed with 5 ml of diluent three times and the rinses were transferred to the flask. The contents of the flask were further diluted with the diluent and made up to the mark with the diluent. The pH of the diluted solution was measured and recorded. The contents of the flask were held at the temperatures noted and analyzed at predetermined time intervals.
# [4] = Solution stability of reconstituted lyophile (epoprostenol 0.5 mg/ml, arginine 50 mg/ml, pH 13.0); format: physicochemical; conditions: 50 mg/ml arginine
# Procedure: In the next set of experiments, the pH of the solution containing epoprostenol and arginine was adjusted to 13.0 with sodium hydroxide, and lyophilized. Upon reconstitution of the lyophile with 1 ml of Water for Injection, the reconstituted solution contains 50 mg/ml arginine and 0.5 mg/ml epoprostenol. The pH of the solution is 13.0. The stability data are presented in Table 6 for 5° C. and Table 7 for 29° C. below: […]
structure (smiles),measurement,setting,value
N=C(N)NCCC[C@H](N)C(=O)O [arginine],basic pKa,[1],10.8
"CCCCC[C@H](O)/C=C/C1[C@H]2C/C(=C/CCCC(=O)[O-])OC2C[C@H]1O.[Na+] (stereo partly drawn) [Epoprostenol, (5Z,9(alpha),11(alpha),13E,15S)-6,9-epoxy-11,15-dihydroxyprosta-5,13-dien-1-oic acid]",% Assay of Epoprostenol by Area,"[2]; pH 11.2, 5 ± 1° C., 4.0 HRS",99.5%
same,Area % of 6-keto et al. impurities,"[2]; pH 11.2, 5 ± 1° C., 4.0 HRS",0.28%
same,% Assay of Epoprostenol by Area,"[2]; pH 11.2, 5 ± 1° C., 7.0 HRS",99.0%
same,Area % of 6-keto et al. impurities,"[2]; pH 11.2, 5 ± 1° C., 7.0 HRS",0.39%
same,% Assay of Epoprostenol by Area,"[2]; pH 11.2, 5 ± 1° C., 10.0 HRS",98.6%
same,Area % of 6-keto et al. impurities,"[2]; pH 11.2, 5 ± 1° C., 10.0 HRS",0.53%
same,% Assay of Epoprostenol by Area,"[2]; pH 11.2, 5 ± 1° C., 11.5 HRS",98.3%
same,Area % of 6-keto et al. impurities,"[2]; pH 11.2, 5 ± 1° C., 11.5 HRS",0.57%
same,% Assay of Epoprostenol by Area,"[2]; pH 11.2, 5 ± 1° C., 17.5 HRS",97.3%
same,Area % of 6-keto et al. impurities,"[2]; pH 11.2, 5 ± 1° C., 17.5 HRS",0.80%
same,% Assay of Epoprostenol by Area,"[2]; pH 11.2, 5 ± 1° C., Initial",100.0%
same,loss in potency,"[2]; pH 11.9, 5° C., at 53 hours",1.4%
same,% Assay of Epoprostenol by Area,"[2]; pH 11.9, 5 ± 1° C., 2 HRS",99.9%
same,Area % of 6-keto et al. impurities,"[2]; pH 11.9, 5 ± 1° C., 2 HRS",0.19%
same,% Assay of Epoprostenol by Area,"[2]; pH 11.9, 5 ± 1° C., 4 HRS",99.8%
same,Area % of 6-keto et al. impurities,"[2]; pH 11.9, 5 ± 1° C., 4 HRS",0.19%
same,% Assay of Epoprostenol by Area,"[2]; pH 11.9, 5 ± 1° C., 6 HRS",99.8%
same,Area % of 6-keto et al. impurities,"[2]; pH 11.9, 5 ± 1° C., 6 HRS",0.21%
same,% Assay of Epoprostenol by Area,"[2]; pH 11.9, 5 ± 1° C., 8 HRS",99.7%
same,Area % of 6-keto et al. impurities,"[2]; pH 11.9, 5 ± 1° C., 8 HRS",0.22%
same,% Assay of Epoprostenol by Area,"[2]; pH 11.9, 5 ± 1° C., 10 HRS",99.6%
same,Area % of 6-keto et al. impurities,"[2]; pH 11.9, 5 ± 1° C., 10 HRS",0.23%
same,% Assay of Epoprostenol by Area,"[2]; pH 11.9, 5 ± 1° C., 12.5 HRS",99.6%
same,Area % of 6-keto et al. impurities,"[2]; pH 11.9, 5 ± 1° C., 12.5 HRS",0.25%
same,% Assay of Epoprostenol by Area,"[2]; pH 11.9, 5 ± 1° C., 14.5 HRS",99.6%
same,Area % of 6-keto et al. impurities,"[2]; pH 11.9, 5 ± 1° C., 14.5 HRS",0.26%
same,% Assay of Epoprostenol by Area,"[2]; pH 11.9, 5 ± 1° C., 39 HRS",99.5%
same,Area % of 6-keto et al. impurities,"[2]; pH 11.9, 5 ± 1° C., 39 HRS",0.63%
same,% Assay of Epoprostenol by Area,"[2]; pH 11.9, 5 ± 1° C., 53 HRS",98.6%
same,Area % of 6-keto et al. impurities,"[2]; pH 11.9, 5 ± 1° C., 53 HRS",1.15%
same,% Assay of Epoprostenol by Area,"[2]; pH 11.9, 5 ± 1° C., 77 HRS",92.7%
same,Area % of 6-keto et al. impurities,"[2]; pH 11.9, 5 ± 1° C., 77 HRS",2.05%
same,% Assay of Epoprostenol by Area,"[2]; pH 11.9, 5 ± 1° C., 100 HRS",92.5%
same,Area % of 6-keto et al. impurities,"[2]; pH 11.9, 5 ± 1° C., 100 HRS",2.10%
same,% Assay of Epoprostenol by Area,"[2]; pH 11.9, 5 ± 1° C., 124 HRS",92.5%
same,Area % of 6-keto et al. impurities,"[2]; pH 11.9, 5 ± 1° C., 124 HRS",2.25%
same,% Assay of Epoprostenol by Area,"[2]; pH 11.9, 5 ± 1° C., Initial",100.0%
same,Area % of 6-keto et al. impurities,"[2]; pH 11.9, 5 ± 1° C., Initial",0.15%
same,drug degraded,"[3]; D5W, after 8 hours",approximately 84%
same,stability compared with normal saline,"[3]; lactated Ringer's solution, 25° C. and 30° C.",comparable to that of normal saline
same,potency maintained,"[3]; water, 30° C., for more than 18 hours",greater than 90%
same,loss of potency,"[4]; pH 13.0, 5° C., over 480 hours",3.4%
same,loss of potency on average,"[4]; pH 13.0, 5° C., over 480 hours",0.007 %/hour
same,% Assay of Epoprostenol by Area,"[4]; pH 13.0, 5 ± 1° C., 14.5 Hours",99.8%
same,Area % of 6-keto PGF et al. impurities,"[4]; pH 13.0, 5 ± 1° C., 14.5 Hours",0.20%
same,% Assay of Epoprostenol by Area,"[4]; pH 13.0, 5 ± 1° C., 53 Hours",98.8%
same,% Assay of Epoprostenol by Area,"[4]; pH 13.0, 5 ± 1° C., 124 Hours",98.0%
same,Area % of 6-keto PGF et al. impurities,"[4]; pH 13.0, 5 ± 1° C., 124 Hours",0.40%
same,% Assay of Epoprostenol by Area,"[4]; pH 13.0, 5 ± 1° C., 148 Hours",97.6%
same,Area % of 6-keto PGF et al. impurities,"[4]; pH 13.0, 5 ± 1° C., 148 Hours",0.45%
same,% Assay of Epoprostenol by Area,"[4]; pH 13.0, 5 ± 1° C., 192 Hours",97.3%
same,Area % of 6-keto PGF et al. impurities,"[4]; pH 13.0, 5 ± 1° C., 192 Hours",0.47%
same,% Assay of Epoprostenol by Area,"[4]; pH 13.0, 5 ± 1° C., 240 Hours",96.9%
same,Area % of 6-keto PGF et al. impurities,"[4]; pH 13.0, 5 ± 1° C., 240 Hours",0.61%
same,% Assay of Epoprostenol by Area,"[4]; pH 13.0, 5 ± 1° C., 480 Hours",96.6%
same,Area % of 6-keto PGF et al. impurities,"[4]; pH 13.0, 5 ± 1° C., 480 Hours",0.70%
same,% Assay of Epoprostenol by Area,"[4]; pH 13.0, 5 ± 1° C., Initial",100.0%
same,Area % of 6-keto PGF et al. impurities,"[4]; pH 13.0, 5 ± 1° C., Initial",0.16%
same,degradation,"[4]; pH 13.0, 29° C., in 12 hours",1.5%
same,% Assay of Epoprostenol by Area,"[4]; pH 13.0, 29 ± 1° C., 1 HRS",100.0%
same,Area % of 6-keto et al. impurities,"[4]; pH 13.0, 29 ± 1° C., 1 HRS",0.087%
same,% Assay of Epoprostenol by Area,"[4]; pH 13.0, 29 ± 1° C., 5 HRS",99.8%
same,Area % of 6-keto et al. impurities,"[4]; pH 13.0, 29 ± 1° C., 5 HRS",0.18%
same,% Assay of Epoprostenol by Area,"[4]; pH 13.0, 29 ± 1° C., 7 HRS",99.3%
same,Area % of 6-keto et al. impurities,"[4]; pH 13.0, 29 ± 1° C., 7 HRS",0.21%
same,% Assay of Epoprostenol by Area,"[4]; pH 13.0, 29 ± 1° C., 8 HRS",99.2%
same,Area % of 6-keto et al. impurities,"[4]; pH 13.0, 29 ± 1° C., 8 HRS",0.25%
same,% Assay of Epoprostenol by Area,"[4]; pH 13.0, 29 ± 1° C., 9 HRS",99.1%
same,Area % of 6-keto et al. impurities,"[4]; pH 13.0, 29 ± 1° C., 9 HRS",0.29%
same,% Assay of Epoprostenol by Area,"[4]; pH 13.0, 29 ± 1° C., 10 HRS",98.8%
same,Area % of 6-keto et al. impurities,"[4]; pH 13.0, 29 ± 1° C., 10 HRS",0.28%
same,% Assay of Epoprostenol by Area,"[4]; pH 13.0, 29 ± 1° C., 11 HRS",98.6%
same,Area % of 6-keto et al. impurities,"[4]; pH 13.0, 29 ± 1° C., 11 HRS",0.29%
same,% Assay of Epoprostenol by Area,"[4]; pH 13.0, 29 ± 1° C., 12 HRS",98.5%
same,Area % of 6-keto et al. impurities,"[4]; pH 13.0, 29 ± 1° C., 12 HRS",0.30%
same,% Assay of Epoprostenol by Area,"[4]; pH 13.0, 29 ± 1° C., 13 HRS",98.1%
same,Area % of 6-keto et al. impurities,"[4]; pH 13.0, 29 ± 1° C., 13 HRS",0.38%
same,% Assay of Epoprostenol by Area,"[4]; pH 13.0, 29 ± 1° C., 14 HRS",98.0%
same,Area % of 6-keto et al. impurities,"[4]; pH 13.0, 29 ± 1° C., 14 HRS",0.37%
same,% Assay of Epoprostenol by Area,"[4]; pH 13.0, 29 ± 1° C., 15 HRS",97.8%
same,Area % of 6-keto et al. impurities,"[4]; pH 13.0, 29 ± 1° C., 15 HRS",0.39%
same,% Assay of Epoprostenol by Area,"[4]; pH 13.0, 29 ± 1° C., 24 HRS",97.5%
same,Area % of 6-keto et al. impurities,"[4]; pH 13.0, 29 ± 1° C., 24 HRS",0.39%
same,% Assay of Epoprostenol by Area,"[4]; pH 13.0, 29 ± 1° C., 36 HRS",97.5%
same,Area % of 6-keto et al. impurities,"[4]; pH 13.0, 29 ± 1° C., 36 HRS",0.45%
same,% Assay of Epoprostenol by Area,"[4]; pH 13.0, 29 ± 1° C., Initial",100.0%
same,Area % of 6-keto et al. impurities,"[4]; pH 13.0, 29 ± 1° C., Initial",0.072%
